# Assay results as given in US20140106967A1, “AUXIN PLANT GROWTH REGULATORS” (The Governors of The University of Alberta, priority 2011, published 2014).
# What was measured:
# [1] = system: wheat 'Harvest HRS'; assay: Wheat field experiment (Table W1); format: in vivo, Triticum aestivum; conditions: 1×10^−5 M
# Description: The wheat (Triticum aestivum) cultivar Harvest HRS was seeded on May 20, 2011 with a target of 250 seedlings per m^2 into a field plot located at the St. Albert Field-Research Station of the University of Alberta, St. Albert, Alberta, Canada that was seeded with canola the previous season. Eight 2×4 m plots were cut out of a larger field plot with a mower producing two rows of four 2×4 m plots with a 1 m buffer between each plot and 4 m between the 4-plot rows. The hormone treatments were randomly assigned to the 2×4 plots. Aqueous solutions of 4-ME-IAA at 1×10^−5 M in 0.1% (v/v) Tween 80 or control solutions (0.1% [v/v]Tween 80) were sprayed Jul. 15, 2011 in slightly breezy (8 km/h), overcast weather, temperature 16° C. Three hours later, the sun emerged and the ambient temperature rose from 16° C. to 21° C. The relative humidity at the time of spraying was 75%. On average, 15% of the plants in the plots had their first florets open at the time of hormone application. A separate Chapin 20000-type 4 L pneumatic sprayer was used for applying the 4-ME-IAA and the control solutions; each sprayer was equipped with a medium-delivery blue fan nozzle designed to deliver 1.4 L per minute at the normal operating pressure of 40 PSI. Each plot was sprayed with a total of 0.91 L of solution to obtain uniform coverage.
# [2] = system: PsGA20ox1, PsGA3ox1, PsGA2ox1; assay: GA biosynthesis/catabolism gene expression in pea pericarp; format: in vivo, Pisum sativum; conditions: 24 h treatment period
# Description: (§1) During early pea fruit growth, the physiological roles of 4-chloroindole-3-acetic acid (4-Cl-IAA) and IAA, both natural pea auxins, in regulating gibberellin (GA) 20-oxidase gene expression (PsGA20ox1) were tested with 4-position, ring-substituted auxins that have a range of biological activities (fruit growth). The effect of seeds, and natural and synthetic auxins (4-Cl-IAA, and IAA; 4-Me-IAA, 4-Et-IAA and 4-F-IAA, respectively), and auxin concentration (4-Cl-IAA) on PsGA20ox1 mRNA levels in pea pericarp were investigated over a 24 h treatment period. The ability of certain 4-substituted auxins to increase PsGA20ox1 mRNA levels in deseeded pericarp was correlated with their ability to stimulate pericarp growth.
# [3] = system: 'Harvest HRS'-Spring hard-red wheat; assay: Wheat growth chamber experiment, with or without heat stress (Tables W2, W3); format: in vivo, Triticum aestivum
# Description: In another experiment, seeds of the wheat cultivar Harvest HRS were planted at an approximate depth of 1.5 cm in 5 inch square plastic pots (6 inch pot depth; 3 seeds per pot) in 1:1 Sunshine #4 potting mix (Sun Gro Horticulture, Vancouver, Canada) and sand. The seedlings were thinned to one seedling per pot approximately 2 weeks after seeding. Plants were grown in a Conviron growth chamber maintained at 24° C. light/20° C. dark (16 hours light/8 hours dark photoperiod; using 54W/835/HO high fluorescent bulbs [Phillips, Holland] with an average photon flux density of 540 μE m^−2s^−2. Plant were fertilized with 175 ppm 20-20-20 (N:P:K) every 3 to 4 days.
# Aqueous solutions of 4-ME-IAA at 1×10^−6, 1×10^−5, or 1×10^−4 M in 0.1% (v/v) Tween 80 or a control solution (0.1% [v/v] Tween 80) were applied (sprayed on plant to cover) when the majority of the plants were at the BBCH scale 45 developmental stage (late boot stage where the flag leaf sheath [boot] is swollen with the inflorescence, but the inflorescence has not emerged from the boot). The experiment was arranged in a completely randomized design within the growth chamber.
# The heat stress treatment was imposed by moving plants to receive the heat stress to a different growth chamber ((heat stress chamber) for 6 days. In the heat stress chamber, the light cycle began at 7:00 hours at a 24° C. air temperature. The heat treatment began at 11:00 hours (33° C. air temperature) and was maintained for 6 hours (until 17:00 hours). Following the heat treatment, the remainder of the light cycle was maintained at a 24° C. air temperature. The dark cycle (began at 23:00 hours) was maintained at 20° C. The photoperiod was 16 h light/8 h dark at an average photon flux density of 492 μE m^−2s^−2 using 54W/835/HO high fluorescent bulbs (Phillips, Holland). After 6 days, the heat stress-treated plants were returned to the original growth chamber maintained at non-heat stress conditions to develop to maturity.
# [4] = system: pea pericarp; assay: Split-pericarp assay: growth of deseeded pea pericarps attached to the plant; format: in vivo, Pisum sativum
# Description: In addition to GAs, developing pea seeds and pericarps contain two auxins, 4-chloroindole-3-acetic acid (4-Cl-IAA) and indole-3-acetic acid (IAA) (Magnus et al. 1997). A split-pericarp assay where test compounds are applied to the inner wall of split and deseeded pericarps that are still attached to the plant has been developed to examine the effects of exogenously applied growth substances on pericarp growth.
# as §1
# [5] = At maturity, 20 spikes per plot
# [6] = 1×10^−4 M, 6 days of heat stress (33° C. 6 h/day)
# [7] = 1×10^−5 M, 6 days of heat stress (33° C. 6 h/day)
# [8] = 1×10^−6 M, 6 days of heat stress (33° C. 6 h/day)
smiles,measurement,setting,value
"Cc1cccc2[nH]cc(CC(=O)O)c12 [4-ME-IAA, 4-methyl-indole-3-acetic acid]",increase in seed number per floral spike,[1],10%
same,increase in seed weight per floral spike,[1],12%
same,Seed number per spike,[1]; At maturity,27.5 ± 1.3
same,Seed weight per spike,[1]; At maturity,1.03 ± 0.05 g
same,Total seed number,[1]; [5],550.8 ± 26.6
same,Total seed weight,[1]; [5],20.6 ± 1.1 g
same,Number of spikes per plant,[1]; Pre-harvest,3.825 ± 0.207
same,Plant height,[1]; Pre-harvest,94.5 ± 0.4 cm
same,PsGA20ox1 mRNA levels in deseeded pericarp,[2],second most active auxin
same,Length of spike peduncle,[3]; [6],70 ± 10 mm
same,Number of spikes per plant,[3]; [6],25 ± 3
same,Seed number per plant,[3]; [6],130 ± 23
same,Seed number per spike,[3]; [6],5 ± 1
same,Seed weight per plant,[3]; [6],4.08 ± 0.67 g
same,increase in seed number per plant vs control,"[3]; 1×10^−4 M, heat stress",73%
same,increase in seed weight per plant vs control,"[3]; 1×10^−4 M, heat stress",72%
same,Length of spike peduncle,"[3]; 1×10^−4 M, non-heat stress",62 ± 5 mm
same,Number of spikes per plant,"[3]; 1×10^−4 M, non-heat stress",25 ± 1
same,Seed number per plant,"[3]; 1×10^−4 M, non-heat stress",163 ± 32
same,Seed number per spike,"[3]; 1×10^−4 M, non-heat stress",7 ± 1
same,Seed weight per plant,"[3]; 1×10^−4 M, non-heat stress",4.87 ± 0.95 g
same,Length of spike peduncle,[3]; [7],57 ± 5 mm
same,Number of spikes per plant,[3]; [7],24 ± 4
same,Seed number per plant,[3]; [7],57 ± 18
same,Seed number per spike,[3]; [7],3 ± 1
same,Seed weight per plant,[3]; [7],1.83 ± 0.57 g
same,Length of spike peduncle,"[3]; 1×10^−5 M, non-heat stress",82 ± 7 mm
same,Number of spikes per plant,"[3]; 1×10^−5 M, non-heat stress",22 ± 3
same,Seed number per plant,"[3]; 1×10^−5 M, non-heat stress",256 ± 42
same,Seed number per spike,"[3]; 1×10^−5 M, non-heat stress",12 ± 1
same,Seed weight per plant,"[3]; 1×10^−5 M, non-heat stress",7.56 ± 1.36 g
same,Length of spike peduncle,[3]; [8],72 ± 7 mm
same,Number of spikes per plant,[3]; [8],28 ± 3
same,Seed number per plant,[3]; [8],151 ± 43
same,Seed number per spike,[3]; [8],5 ± 1
same,Seed weight per plant,[3]; [8],4.49 ± 1.25 g
same,increase in number of floral spikes per plant vs control,"[3]; 1×10^−6 M, heat stress",40%
same,increase in seed number per plant vs control,"[3]; 1×10^−6 M, heat stress",101%
same,increase in seed weight per plant vs control,"[3]; 1×10^−6 M, heat stress",90%
same,Length of spike peduncle,"[3]; 1×10^−6 M, non-heat stress",63 ± 6 mm
same,Number of spikes per plant,"[3]; 1×10^−6 M, non-heat stress",24 ± 3
same,Seed number per plant,"[3]; 1×10^−6 M, non-heat stress",254 ± 81
same,Seed number per spike,"[3]; 1×10^−6 M, non-heat stress",10 ± 2
same,Seed weight per plant,"[3]; 1×10^−6 M, non-heat stress",8.17 ± 2.66 g
same,pericarp growth (biological activity),[4],second most biologically active auxin
